Format in all cases: physicochemical
Data set [1] in a line: Particle size measurement by laser diffraction (Malvern Scirocco) after micronisation. As to conditions: after jet milling; pressure 4 bar (comparison) or 1.5 bar (salts). The method, then:
Particle size reduction (micronisation) was performed in a jet mill in which pressurised gas was used to make the substance particles collide at high speed in order to effect particle size reduction. Particle size measurements were performed with laser diffraction using a Malvern Scirocco instrument.

Data set [2] is described as follows: Measurement of fine particle fraction (FPF) with Next Generation Impactor and HPLC. The following applies: for Delivered amount: 60 liters/min for 2 seconds; for FPF (% < 5 μm/delivered dose), Average over NGI's: average of NGI1 and NGI2.
Protocol: Measurement of FPF, starting from substance as received, was carried out according to the following series of steps:
Doses of 1-2 mg were weighed manually (without scraping) into the cavities of a prototype inhaler (see below). Two experiments were run for each test substance and two doses were used in each experiment and, thus, in total, four doses of each test substance were used in the experiments. The samples were dried in nitrogen gas atmosphere overnight before conducting the experiments.
The Next Generation Impactor, NGI, was used for the fine particle assessment. […] Two NGI impactors were used, one per experiment.
A simple prototype inhaler was used for the tests, consisting of an L-shaped cylindrical channel, comprising a vertical component and a horizontal component. The prototype inhaler was fitted via an USP-inlet to the NGI impactor. The micronised powder was transferred through the vertical channel into the bend of the prototype inhaler, (i.e. the bend of the L-shaped channel).
Each dose of 1-2 mg of powder was drawn with an airflow of 60 liters/min for 2 seconds (measured at the entrance of the induction port), entraining the powder located in the bend, and the aerosol thereafter moved through the horizontal component of the channel, through a spiral mouthpiece and into the NGI impactor.
The withdrawal and collection of the drug powders was performed in an isolator (glove) box with a relative humidity level below 2%.
The FPF's, as defined in the pharmacopoeia references above, were calculated.
Data set [3] can be described thus: Particle size reduction (micronisation) in 2" Spiral Jet Mill. As to conditions: for Yield (micronisation): constant flow feed, venturi 5 bar, grind 1-2 bar. The method, then: Particle size reduction using a 2″ Spiral Jet Mill (SJM) was carried out on the following three test substances: the monohydrochloride salt according to Example 1 (invention salt), the dimaleate salt according to Example 3 (invention salt) and the free base compound, methyl (3-{[[3-(6-amino-2-butoxy-8-oxo-7,8-dihydro-9H-purin-9-yl)propyl](3-morpholin-4-ylpropyl)amino]methyl}phenyl)acetate (comparison compound).
A sieved batch of test substance was fed into the jet mill chamber, via a venturi feed system, by a vibratory feeder. Micronisation was achieved by particle collisions brought about by compressed gas (nitrogen) forced through angled nozzles in the jet mill chamber. Particles of different sizes develop different speeds and momentum and as the particle size is reduced the particles spiral towards the centre of the jet mill and exit via an exhaust into a collection bin. The process parameters that control the particle size, in addition to the inherent properties of the compound to be micronised, are the feed rate, grinding pressure and venturi pressure and these are summarised in Table I following.

For `CCCCOc1nc(N)c2[nH]c(=O)n(CCCN(CCCN3CCOCC3)Cc3cccc(CC(=O)OC)c3)c2n1.Cl` [Monohydrochloride, methyl (3-{[[3-(6-amino-2-butoxy-8-oxo-7,8-dihydro-9H-purin-9-yl)propyl](3-morpholin-4-ylpropyl)amino]methyl}phenyl)acetate monohydrochloride], in data set [1], the “d(0.1)” value amounted to 0.9 μm, the “d(0.5)” value was determined as 1.8 μm and the “d(0.9)” value was 3.5 μm. Besides, in data set [2] (NGI1), the “Amount particles < 5 μm, extrapolated” value was 393 µg; the “Collected in stage 3-8 (<4.5 μm)” value was found to be 383 µg; the “FPF (% < 5 μm/delivered dose)” value turned out to be 31.3%; the Delivered amount was 1257 µg. Further, in data set [2] (NGI2), the “Amount particles < 5 μm, extrapolated” value was 402 µg; the “Collected in stage 3-8 (<4.5 μm)” value turned out to be 392 µg; the “FPF (% < 5 μm/delivered dose)” value is listed as 40.6%; the Delivered amount was found to be 992 µg. Further, the “FPF (% < 5 μm/delivered dose), Average over NGI's” value in data set [2] came to 35.9%. Moreover, in data set [3], the “Micronisation behaviour (build-up/blocking of mill)” value (“Micronisation behaviour” for short) is “readily micronised” and the “Yield (micronisation)” value was found to be 85%.

`CCCCOc1nc(N)c2[nH]c(=O)n(CCCN(CCCN3CCOCC3)Cc3cccc(CC(=O)OC)c3)c2n1` [Comparison compound, methyl (3-{[[3-(6-amino-2-butoxy-8-oxo-7,8-dihydro-9H-purin-9-yl)propyl](3-morpholin-4-ylpropyl)amino]methyl}phenyl)acetate, reference compound]: in data set [1], the “d(0.1)” value was 0.6 μm, the “d(0.5)” value was 1.7 μm and the “d(0.9)” value was found to be 4.1 μm. Further, in data set [2] (NGI1), the “Amount particles < 5 μm, extrapolated” value is 139 µg; the “Collected in stage 3-8 (<4.5 μm)” value was determined as 131 µg; the “FPF (% < 5 μm/delivered dose)” value worked out at 19.3%; the Delivered amount amounted to 720 µg. In data set [2] (NGI2), the “Amount particles < 5 μm, extrapolated” value was 189 µg; the “Collected in stage 3-8 (<4.5 μm)” value turned out to be 178 µg; the “FPF (% < 5 μm/delivered dose)” value came to 13.6%; the Delivered amount was 1396 µg. The “FPF (% < 5 μm/delivered dose), Average over NGI's” value in data set [2] was found to be 16.4%. In data set [3], the “Micronisation behaviour” value is on record as “the mill became plugged” and the “Yield (micronisation)” value came out at 1.7%.

On to `CCCCOc1nc(N)c2[nH]c(=O)n(CCCN(CCCN3CCOCC3)Cc3cccc(CC(=O)OC)c3)c2n1.O=C(O)/C=C\C(=O)O.O=C(O)/C=C\C(=O)O` [Dimaleate salt, methyl (3-{[[3-(6-amino-2-butoxy-8-oxo-7,8-dihydro-9H-purin-9-yl)propyl](3-morpholin-4-ylpropyl)amino]methyl}phenyl)acetate dimaleate], for which, in data set [3], the “Micronisation behaviour” value is “readily micronised” and the “Yield (micronisation)” value worked out at 48%.

Turning to `Br.CCCCOc1nc(N)c2[nH]c(=O)n(CCCN(CCCN3CCOCC3)Cc3cccc(CC(=O)OC)c3)c2n1` [Monohydrobromide, methyl (3-{[[3-(6-amino-2-butoxy-8-oxo-7,8-dihydro-9H-purin-9-yl)propyl](3-morpholin-4-ylpropyl)amino]methyl}phenyl)acetate monohydrobromide], in data set [1], the “d(0.1)” value came to 0.8 μm, the “d(0.5)” value worked out at 1.9 μm and the “d(0.9)” value is recorded as 4.1 μm. Moreover, in data set [2] (NGI1), the “Amount particles < 5 μm, extrapolated” value is 332 µg; the “Collected in stage 3-8 (<4.5 μm)” value stood at 319 µg; the “FPF (% < 5 μm/delivered dose)” value is 29.6%; the Delivered amount worked out at 1123 µg. In addition, in data set [2] (NGI2), the “Amount particles < 5 μm, extrapolated” value was 427 µg; the “Collected in stage 3-8 (<4.5 μm)” value was 414 µg; the “FPF (% < 5 μm/delivered dose)” value is 43.8%; the Delivered amount was 975 µg. The “FPF (% < 5 μm/delivered dose), Average over NGI's” value in data set [2] is given as 36.7%.

The values are drawn from US8673907B2, “Pharmaceutically acceptable salts of methyl (3-{ [[3-(6-amino- 2-butoxy-8-oxo-7,8-dihydro-9H-purin-9-yl) propyl] (3-morpholin-4-ylpropyl) amino] methyl }phenyl) acetate and their use in therapy” (AstraZeneca AB, priority 2007, dated 2014).
